The target in assay [1] is LTB4 receptor (Cavia porcellus, UniProt H0VYV8). Nature of the assay: LTB4 binding assay, displacement of [3H]LTB4, guinea pig spleen membrane. (In general: Loss of bound radioactivity is the signal in a displacement assay; it reports binding, not function.)
Method: Reactions were carried out in a phosphate buffer (pH 7.4) containing NaCl, MgCl2, EDTA, and bacitracin. The reaction volume of 150 μL containing 1.0 mg/mL of the Guinea pig spleen membrane preparation and 1 nM [^3H]LTB4, with or without a competitor, was incubated at 0-4° C. for 2 hours. Competitors included 2,3-benzodiazepines, and LTB4 as a control. The reaction was terminated by rapid vacuum filtration onto glass fiber filters. The filter was washed with cold buffer, dried and placed in a scintillation vial. Radioactivity trapped onto the filters was determined and compared to control values in order to ascertain any interactions of the test compound with the LTB4 binding site.
Assay [2] deals with LTB4-induced dermal inflammation. Nature of the assay: Rabbit model of LTB4-induced dermal inflammation, histopathology of intradermal challenge sites. It is filed as in vivo, New Zealand White Rabbits. Further details: key to Inflammation score / Edema score: 0=normal; T=trace; 1=minimal; 2=mild; 3=moderate; 4=marked. As to conditions: test article IP 60 mg/kg (dexamethasone 0.5 mg/kg), 4 hr after challenge. As for the experimental part: Test compounds were prepared as follows. The vehicle was first prepared by dissolving […] of hydroxypropylmethylcellulose 2910 (HPMC)(Sigma Chemical, St. Louis, Mo.) in 50 mL of 0.9% saline to yield a concentration of 2% HPMC. The three test articles, (R)-, (S)- and racemic tofisopam, were formulated by adding 1 g of each test article to 10 mL of vehicle.
On Day 0, the rabbits were sedated with ketamine/xylazine (35/5 mg/kg, s.c.) and an area of approximately 8×14 cm on the back was closely and carefully clipped to expose the skin, but not inflame or otherwise damage the epithelium. A grid of ten squares each approximately 2.5×2.5 cm was drawn on each animal's back using an indelible marker. The animals were then dosed intraperitoneally with the appropriate test article corresponding to the group. Thirty minutes after dosing with test or control article, the animals were challenged intradermally with the LTB4 or LTB4-aminopropamide (LTB4-AP, a synthetic LTB4 agonist) in the appropriate site as shown in Table 4. Each injection site was marked with an indelible marker in order to identify the exact location of the intradermal injection site. Sixty minutes after challenge, the animals were treated again with tofisopam or control articles. The animals were sacrificed 4 hrs. after challenge, and the intradermal injection sites were excised, fixed in 10% neutral buffered formalin (NBF), and submitted for histopathology. H&E-stained sections were read by a board-certified veterinary pathologist using light microscopy.
All animals were sacrificed 4 hr after challenge. The intradermal challenge sites were excised, placed on unique cardboard squares, fixed in 10% NBF, and submitted for histopathology. The skin sections included the epidermis and the subcutis, down to the back musculature.
The marked skin sections were fixed for at least 48 hours on small cardboard squares. At gross trimming, three levels were cut through marked skin region in order to assure that the injection sites is brought into the plane of section. The skins were gross trimmed, processed by dehydration, embedded in paraffin, sectioned at 3-5 μm, and stained with hematoxylin and eosin.
The tissues were evaluated histopathologically via light microscopy by a board-certified veterinary pathologist. Initially, the identity of the slides was masked in order to perform the initial evaluation and rank the slides. The slides were then unmasked and there was a careful assessment of the lesions and careful comparison of the tofisopam-treated sites to the vehicle and positive control tissues. The lesions were graded based upon the degree of inflammation and the degree of edema. The severity of the inflammation and edema was keyed as follows: 0=normal; T=trace; 1=minimal; 2=mild; 3=moderate; 4=marked.

Values joined by “and” are separate entries in the source; they are usually repeats but may differ in a detail not shown here. Identical values can stand only once.

Chain of LTB4 receptor (H0VYV8 1-348): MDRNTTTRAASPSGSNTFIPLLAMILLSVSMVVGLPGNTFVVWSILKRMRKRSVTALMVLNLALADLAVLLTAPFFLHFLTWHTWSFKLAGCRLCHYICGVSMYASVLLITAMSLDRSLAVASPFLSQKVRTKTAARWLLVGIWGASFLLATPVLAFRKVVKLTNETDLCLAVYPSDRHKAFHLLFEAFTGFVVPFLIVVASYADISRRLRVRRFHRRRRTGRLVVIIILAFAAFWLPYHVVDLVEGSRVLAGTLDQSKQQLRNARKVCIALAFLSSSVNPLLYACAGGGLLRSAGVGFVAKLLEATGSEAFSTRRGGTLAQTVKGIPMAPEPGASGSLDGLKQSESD

`CCCCC/C=C\C[C@@H](O)/C=C/C=C/C=C\[C@@H](O)CCCC(=O)O` [LTB4, Leukotriene B4]: in assay [1], the Ki lay in the range of 0.2 to 0.9 nM.
For the molecule `C[C@@H]1C[C@H]2[C@@H]3CCC4=CC(=O)C=C[C@]4(C)[C@@]3(F)[C@@H](O)C[C@]2(C)[C@@]1(O)C(=O)CO` [dexamethasone], the Edema score in assay [2] (injection site: LTB4 500 ng) is 2 and 3; in assay [2] (injection site: LTB4 1000 ng) it was 2 and 3; in assay [2] (injection site: LTB4 2000 ng), 3 and 2 and 1; in assay [2] (injection site: LTB-ap 500 ng), 2 and 3; in assay [2] (injection site: LTB-ap 1000 ng), 3; in assay [2] (injection site: LTB-ap 2000 ng), 3 and 1 and 2. The Edema score in assay [2] (injection site: Vehicle 0 ng) is 1 and 0. Moreover, the Inflammation score in assay [2] (injection site: LTB4 500 ng) is 2 and 3; in assay [2] (injection site: LTB4 1000 ng), 3; in assay [2] (injection site: LTB-ap 500 ng), 3 and 2; in assay [2] (injection site: LTB-ap 1000 ng), 2; in assay [2] (injection site: LTB-ap 2000 ng) it was 2 and 1; in assay [2] (injection site: Vehicle 0 ng), 1 and 0.

A word on the Ki: it is the dissociation constant of the complex between target and ligand, obtained from inhibition or displacement.

(Values after patent publication US6864251B2, “Treatment of LTB4-mediated inflammatory disorders with optically-pure (R)-2,3-benzodiazepines” (Vela Pharmaceuticals, Inc., priority 2002, dated 2005).)
